Data taken from US20200064348A1, “METHODS FOR DETERMINING INTERACTION BETWEEN BIOLOGICAL CELLS” (CeMM - Forschungszentrum für Molekulare Medizin GmbH, priority 2017, published 2020).
Entries after “also recorded” stand apart in the source; their conditions may differ.

Assays:
B and NK cells = test: Interaction propensity of B and NK cells in combined bone marrow and PBMCs of B-ALL patients; assay type: cell-based, human; conditions: B-ALL bone marrow plus PBMCs, vs PBS control
Excerpt: (§1) Bone marrow of a patients with B-cell acute lymphoblastic leukemia (B-ALL) and PBMCs of the same patient are combined, treated with Rituximab or PBS control and the interaction propensity of B and NK cells in non-adherent cell monolayers obtained from treated and untreated combined sample according to WO 2016/046346 determined using the present invention.

B-cell lymphoma = test: Clinical response of the B-cell lymphoma patient to treatment; assay type: in vivo, human; conditions: one B-cell lymphoma patient given the drug
[1] = test system: CD10+ positive target cells and CD3+ T-cells; test: Interaction of CD10 positive tumour cells with T-cells in pleural effusion/PBMC monolayers of a B-cell lymphoma patient; assay type: cell-based, human
Procedure: FIG. 12: interactions between CD10+ positive target cells, which according to pathology review comprised the tumour cells, and CD3+ T-cells were measured in a sample of a B-cell lymphoma patient in response to blinatumomab treatment for 24 h using the methods of the present invention and quantified as an interaction score. […] The different graphs show different amounts of cells isolated from pleural effusion (PE) of the patient mixed with different amounts of matched PBMCs from the same patient.
Pleural effusion from a patient with a B-cell lymphoma was collected by gradient density centrifugation. This pleural effusion consisted of a mixture of cell types found in bone marrow and PBMCs having migrated to the pleural cavity with concomitant fluid build-up and contained cancer as well as healthy cells. A matched sample of blood was also purified over Lymphoprep gradient. Cells obtained from the pleural effusion were titrated against cells from the matched PBMC samples and monolayers prepared according to WO2016/046346. Monolayers were treated with different concentrations of blinatumomab and the interaction of tumour cell populations previously determined to be CD10 positive by a pathologist with effector T-cells determined using the methods described in the present invention.

[2] = test system: B (CD19 positive) and NK cells (CD58 positive); test: Interaction propensity of B (CD19 positive) and NK cells in PBMC monolayers; assay type: cell-based, human; conditions: 48 h, over PBS control (0)
Excerpt: FIG. 11: Measured interaction propensity expressed as Log 2 interaction score of CD19 cells to CD56 cells with increasing concentrations of the clinically approved biologic drug Rituxidmab, with media alone as a control (0). Rituximab has a known mechanism of action bringing together NK-cells and cancerous B-cells, and through this interaction inducing cancer, reducing the cancerous burden.
(§2) PBMC monolayers were provided as described in WO 2016/046346, treated with rituximab or PBS control (0) for 48 h, fixed, stained with fluorescently labeled CD56 and CD19 antibodies and imaged using automated confocal microscopy. Subsequently, the interaction propensity of B (CD19 positive) and NK cells (CD58 positive) in the provided non-adherent cell monolayers was determined using the present invention.

[3] = test system: B (CD19 positive) and T cells (CD3 positive); test: Interaction propensity of B (CD19 positive) and T cells (CD3 positive) in PBMC monolayers; assay type: cell-based, human; conditions: PBMC monolayers (healthy blood), 48 h, over PBS control (0)
Excerpt: FIG. 9: Measured interaction propensity expressed as Log 2 interaction score of CD3 cells to […] with increasing concentrations of the clinically approved biologic drug Blinatumomab, with media alone as a control (0). Blinatumomab has a known mechanism of action bringing together cytotoxic or other T-cells and cancerous B-cells, through this interaction, Inducing cancer cell killing and thus reducing the cancerous burden.
as §2, with “blinatumomab” for “rituximab”, “CD3” for “CD56”, “T” for “NK”, “(CD3” for “(CD58”

B and T cells = test: Interaction propensity of B and T cells in combined bone marrow and PBMCs of B-ALL patients; assay type: cell-based, human; conditions: B-ALL bone marrow plus PBMCs, vs PBS control
Excerpt: as §1, with “blinatumomab” for “Rituximab”, “T” for “NK”

CD11C and CD3 cells = test: Interaction propensity of CD11C and CD3 cells in PBMC monolayers of a healthy donor; assay type: cell-based, human; conditions: PBMCs of a healthy donor, various concentrations, vs DMSO control
Procedure: FIG. 10: Measured interaction propensity expressed as Log 2 interaction score of CD11c and CD3 cells after treatment with the small molecule Crizotinib.
PBMCs of a healthy donor are treated with Crizotinib or DMSO control at various concentrations and the interaction propensity of CD11C and CD3 cells in non adherent cell monolayers obtained from treated and untreated combined sample according to WO 2016/046346 determined using the present invention.

[4] = patients not responding clinically
[5] = patients responding to the drug

In the case of “Rituximab: anti-CD20 antibody that links B and NK cells, inducing NK cells to kill B cells”, the “interaction propensity between B and NK cells” value (B and NK cells; [4]) is reported as “do not exhibit this increase” and the “interaction propensity between B and NK cells” value (B and NK cells; [5]) is reported as “increase”.

With “blinatumomab: bispecific antibody in BITE format that cross links B and T cells inducing T cells to kill B cells” the “clinical response of the patient” value (B-cell lymphoma) was “not to respond; also recorded: transient and weak response”, the “fraction of tumour B-cells” value ([1]; B-cell lymphoma patient sample, ex vivo treatment) was “did not change significantly” and the “interaction of CD10 positive tumour cells with effector T-cells (interaction score)” value ([1]; B-cell lymphoma patient, pleural effusion cells mixed with matched PBMCs, different concentrations, 24 h) was “this was not the case for this patient; also recorded: no such interaction change was observed”. The “interaction propensity between B and NK cells” value [2] was “increase”, the “interaction propensity between B and T cells” value [3] was “increases” and the “interaction propensity between B and T cells” value ([3]; listed as blinatomumab) was “increase”. For the same compound, the “interaction propensity between B and T cells” value (B and T cells; [4]) was “do not exhibit this increase” and the “interaction propensity between B and T cells” value (B and T cells; [5]) was “increase”.

For `C[C@@H](Oc1cc(-c2cnn(C3CCNCC3)c2)cnc1N)c1c(Cl)ccc(F)c1Cl` [Crizotinib], the “interaction of DCs and T-cells as indicated by the interaction score” value (CD11C and CD3 cells) was “increase”.
